Experimental data from ChEMBL document CHEMBL1201862, “PubChem BioAssay data set” (2004).
Activity calls are given as the source filed them.

Assays:
[1] = system: Escherichia coli; assay: microbe, parasite or virus in culture
[2] = biological target: T1, Hexokinase HKDC1 (Homo sapiens, UniProt Q2TB90); assay: HKDC1 hexokinase activators, dose response, biochemical, W721R variant (AID 504730); type: functional
T1 sequence (Q2TB90 whole entry): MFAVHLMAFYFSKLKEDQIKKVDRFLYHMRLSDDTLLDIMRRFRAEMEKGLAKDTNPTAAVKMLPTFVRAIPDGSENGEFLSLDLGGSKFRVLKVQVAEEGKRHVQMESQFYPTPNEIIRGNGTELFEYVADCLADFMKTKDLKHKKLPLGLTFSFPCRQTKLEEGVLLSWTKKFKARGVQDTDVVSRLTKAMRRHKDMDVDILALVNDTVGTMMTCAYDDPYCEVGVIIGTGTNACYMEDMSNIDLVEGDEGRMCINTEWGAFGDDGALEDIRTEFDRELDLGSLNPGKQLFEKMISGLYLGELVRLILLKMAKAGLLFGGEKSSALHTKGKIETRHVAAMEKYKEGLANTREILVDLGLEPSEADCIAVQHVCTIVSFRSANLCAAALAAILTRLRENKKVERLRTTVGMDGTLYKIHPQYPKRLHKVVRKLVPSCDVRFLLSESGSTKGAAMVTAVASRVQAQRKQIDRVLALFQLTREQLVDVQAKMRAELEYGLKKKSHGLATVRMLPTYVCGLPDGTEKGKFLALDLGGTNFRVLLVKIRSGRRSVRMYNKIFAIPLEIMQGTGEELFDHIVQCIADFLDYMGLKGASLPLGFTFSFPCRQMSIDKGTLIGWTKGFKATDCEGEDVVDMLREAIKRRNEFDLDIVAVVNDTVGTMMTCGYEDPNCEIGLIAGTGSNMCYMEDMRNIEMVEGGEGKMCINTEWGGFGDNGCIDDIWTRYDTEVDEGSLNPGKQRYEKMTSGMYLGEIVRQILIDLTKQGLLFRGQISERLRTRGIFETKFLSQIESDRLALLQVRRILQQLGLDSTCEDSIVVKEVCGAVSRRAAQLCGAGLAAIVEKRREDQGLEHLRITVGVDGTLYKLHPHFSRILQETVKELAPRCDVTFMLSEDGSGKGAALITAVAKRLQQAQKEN

[3] = biological target: T2, Hexokinase-1 (Homo sapiens, UniProt P19367); assay: hexokinase 1 activators, dose response, selectivity assay for HKDC1 activator project, biochemical (AID 504762); type: functional
T2 sequence (P19367 whole entry): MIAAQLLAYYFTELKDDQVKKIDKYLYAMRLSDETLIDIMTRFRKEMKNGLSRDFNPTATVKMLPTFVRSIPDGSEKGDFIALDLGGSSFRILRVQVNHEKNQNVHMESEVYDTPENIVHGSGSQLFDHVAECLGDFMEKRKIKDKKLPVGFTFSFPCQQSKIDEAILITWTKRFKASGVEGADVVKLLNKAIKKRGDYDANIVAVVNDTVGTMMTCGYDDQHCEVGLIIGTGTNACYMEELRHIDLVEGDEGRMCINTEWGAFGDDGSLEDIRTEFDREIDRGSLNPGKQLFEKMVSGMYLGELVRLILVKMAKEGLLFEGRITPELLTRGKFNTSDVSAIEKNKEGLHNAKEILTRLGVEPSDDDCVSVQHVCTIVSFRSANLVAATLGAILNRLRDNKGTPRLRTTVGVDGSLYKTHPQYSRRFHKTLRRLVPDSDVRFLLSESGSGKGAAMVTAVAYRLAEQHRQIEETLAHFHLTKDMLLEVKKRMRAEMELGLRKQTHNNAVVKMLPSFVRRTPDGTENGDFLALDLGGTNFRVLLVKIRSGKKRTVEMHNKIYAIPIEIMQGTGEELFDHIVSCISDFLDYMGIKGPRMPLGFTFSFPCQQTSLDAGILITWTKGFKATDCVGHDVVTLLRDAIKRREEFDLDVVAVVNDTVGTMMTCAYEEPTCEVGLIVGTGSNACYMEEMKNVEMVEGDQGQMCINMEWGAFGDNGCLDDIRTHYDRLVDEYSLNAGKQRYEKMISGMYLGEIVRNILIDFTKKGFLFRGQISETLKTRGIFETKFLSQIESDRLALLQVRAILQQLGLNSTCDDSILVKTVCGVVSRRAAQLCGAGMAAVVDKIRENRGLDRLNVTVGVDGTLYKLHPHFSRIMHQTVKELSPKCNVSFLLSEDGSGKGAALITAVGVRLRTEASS

[4] = biological target: T3, Sentrin-specific protease 6 (Homo sapiens, UniProt Q9GZR1); assay: SAR Analysis of small molecule inhibitors of Sentrin-specific protease 6 (SENP6) using a Luminescent assay. [Related pubchem assays (depositor defined):AID2582, AID2599]; type: functional
T3 sequence (Q9GZR1 whole entry): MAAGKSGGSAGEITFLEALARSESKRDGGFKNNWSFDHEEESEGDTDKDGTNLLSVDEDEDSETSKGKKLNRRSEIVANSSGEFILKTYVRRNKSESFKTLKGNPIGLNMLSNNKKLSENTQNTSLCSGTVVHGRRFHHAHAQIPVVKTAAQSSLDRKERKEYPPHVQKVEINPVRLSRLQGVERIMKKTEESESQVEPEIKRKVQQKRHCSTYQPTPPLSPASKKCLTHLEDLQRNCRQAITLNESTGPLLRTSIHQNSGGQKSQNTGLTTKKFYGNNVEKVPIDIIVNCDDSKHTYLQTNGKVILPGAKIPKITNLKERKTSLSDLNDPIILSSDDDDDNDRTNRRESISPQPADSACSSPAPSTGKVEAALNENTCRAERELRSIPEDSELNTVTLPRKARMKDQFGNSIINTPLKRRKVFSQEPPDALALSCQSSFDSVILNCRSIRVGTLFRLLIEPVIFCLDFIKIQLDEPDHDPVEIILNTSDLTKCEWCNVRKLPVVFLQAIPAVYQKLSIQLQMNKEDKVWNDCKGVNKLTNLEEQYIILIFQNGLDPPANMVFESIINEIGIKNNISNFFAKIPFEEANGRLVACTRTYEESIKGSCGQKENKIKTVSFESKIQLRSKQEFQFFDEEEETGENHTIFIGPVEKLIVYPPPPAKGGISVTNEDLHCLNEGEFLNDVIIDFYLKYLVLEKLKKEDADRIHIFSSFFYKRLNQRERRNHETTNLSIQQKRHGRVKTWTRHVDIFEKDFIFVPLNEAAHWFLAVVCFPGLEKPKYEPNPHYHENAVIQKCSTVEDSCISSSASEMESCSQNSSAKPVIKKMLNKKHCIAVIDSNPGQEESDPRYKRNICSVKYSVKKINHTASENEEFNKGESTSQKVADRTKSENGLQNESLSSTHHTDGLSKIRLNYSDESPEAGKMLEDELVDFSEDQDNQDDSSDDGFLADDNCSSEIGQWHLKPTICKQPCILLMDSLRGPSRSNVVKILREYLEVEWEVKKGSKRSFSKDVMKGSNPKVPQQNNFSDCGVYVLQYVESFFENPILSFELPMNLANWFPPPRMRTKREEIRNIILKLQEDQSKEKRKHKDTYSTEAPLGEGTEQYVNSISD

[5] = biological target: T4, Sentrin-specific protease 8 (Homo sapiens, UniProt Q96LD8); assay: SENP8 protease inhibitors, SAR follow-up, biochemical, luminescence (AID 504501); type: functional
T4 sequence (Q96LD8 whole entry): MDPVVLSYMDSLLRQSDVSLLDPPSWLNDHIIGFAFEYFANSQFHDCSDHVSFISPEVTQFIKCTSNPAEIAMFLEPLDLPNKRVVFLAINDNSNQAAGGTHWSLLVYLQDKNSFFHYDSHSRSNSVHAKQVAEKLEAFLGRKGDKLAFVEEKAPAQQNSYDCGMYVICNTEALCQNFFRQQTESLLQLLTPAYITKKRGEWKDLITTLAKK

[6] = biological target: T5, Caspase-3 (Homo sapiens, UniProt P42574); assay: SAR Analysis of small molecule inhibitors of Sentrin-specific proteases (SENPs) using a Caspase-3 Selectivity assay. [Related pubchem assays (depositor defined):AID2540, AID2599, AID434973, AID489001]; type: functional
T5 sequence (P42574 whole entry): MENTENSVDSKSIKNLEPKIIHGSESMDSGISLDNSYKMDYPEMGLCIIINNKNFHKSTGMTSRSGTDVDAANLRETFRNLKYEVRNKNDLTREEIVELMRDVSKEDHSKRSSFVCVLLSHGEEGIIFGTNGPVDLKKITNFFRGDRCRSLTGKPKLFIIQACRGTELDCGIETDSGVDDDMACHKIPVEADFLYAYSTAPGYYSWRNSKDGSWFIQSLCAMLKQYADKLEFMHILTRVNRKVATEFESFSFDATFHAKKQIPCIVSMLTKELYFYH

[7] = biological target: T4, Sentrin-specific protease 8; type: functional
[8] = biological target: T4, Sentrin-specific protease 8; type: functional; remark: listed apart in the source
[9] = biological target: T6, Low molecular weight phosphotyrosine protein phosphatase (Homo sapiens, UniProt P24666); type: functional; conditions: read-out: IC50_Mean;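 note: Dose-response confirmation assay measuring inhibition of LMPTP enzyme activity by fluorescence intensity read-out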
T6 sequence (P24666 whole entry): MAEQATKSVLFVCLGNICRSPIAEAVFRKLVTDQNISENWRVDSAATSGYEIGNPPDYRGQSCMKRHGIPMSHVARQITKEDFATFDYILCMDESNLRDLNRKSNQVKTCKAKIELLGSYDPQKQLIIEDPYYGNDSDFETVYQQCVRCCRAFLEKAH

[10] = biological target: T7, Small ubiquitin-related modifier 1 (Homo sapiens, UniProt P63165); assay: inhibitors of SUMO1 peptide binding, dose response, biochemical, fluorescence polarization, uHTS hits (AID 624382); type: functional; conditions: read-out: IC50_Mean
[11] = biological target: T7, Small ubiquitin-related modifier 1; assay: inhibitors of SUMO1 partner interactions, dose response, biochemical, FRET (AID 624383); type: functional; conditions: read-out: IC50_Mean
[12] = biological target: Intestinal-type alkaline phosphatase (Mus musculus, UniProt P24822); assay: PubChem AID 488785; type: functional
[13] = biological target: T8, Alkaline phosphatase, tissue-nonspecific isozyme (Homo sapiens, UniProt P05186); assay: TNAP enzyme inhibition by screening hits, dose response, selectivity assay for mouse IAP inhibitor project, biochemical, human TNAP, uHTS hits (AID 488906); type: functional
T8 sequence (P05186 whole entry): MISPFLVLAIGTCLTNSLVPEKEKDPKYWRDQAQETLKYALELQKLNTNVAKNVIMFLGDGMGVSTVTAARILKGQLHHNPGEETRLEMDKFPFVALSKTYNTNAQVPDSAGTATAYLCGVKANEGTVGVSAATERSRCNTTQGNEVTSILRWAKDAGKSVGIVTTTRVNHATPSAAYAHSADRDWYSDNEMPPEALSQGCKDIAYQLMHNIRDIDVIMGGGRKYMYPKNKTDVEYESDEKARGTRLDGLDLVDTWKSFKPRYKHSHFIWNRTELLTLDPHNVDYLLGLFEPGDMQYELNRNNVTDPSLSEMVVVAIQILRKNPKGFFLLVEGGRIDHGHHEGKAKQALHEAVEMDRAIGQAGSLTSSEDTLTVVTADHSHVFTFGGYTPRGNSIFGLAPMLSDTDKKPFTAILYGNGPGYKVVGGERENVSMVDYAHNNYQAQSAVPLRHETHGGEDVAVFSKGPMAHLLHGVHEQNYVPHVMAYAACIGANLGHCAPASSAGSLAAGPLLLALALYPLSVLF

[14] = biological target: Intestinal-type alkaline phosphatase (Homo sapiens, UniProt P09923); assay: inhibition of human intestinal alkaline phosphatase – biochemical, dose response (AID 488876); type: functional
Intestinal-type alkaline phosphatase (Homo sapiens, UniProt P09923), sequence (P09923 whole entry): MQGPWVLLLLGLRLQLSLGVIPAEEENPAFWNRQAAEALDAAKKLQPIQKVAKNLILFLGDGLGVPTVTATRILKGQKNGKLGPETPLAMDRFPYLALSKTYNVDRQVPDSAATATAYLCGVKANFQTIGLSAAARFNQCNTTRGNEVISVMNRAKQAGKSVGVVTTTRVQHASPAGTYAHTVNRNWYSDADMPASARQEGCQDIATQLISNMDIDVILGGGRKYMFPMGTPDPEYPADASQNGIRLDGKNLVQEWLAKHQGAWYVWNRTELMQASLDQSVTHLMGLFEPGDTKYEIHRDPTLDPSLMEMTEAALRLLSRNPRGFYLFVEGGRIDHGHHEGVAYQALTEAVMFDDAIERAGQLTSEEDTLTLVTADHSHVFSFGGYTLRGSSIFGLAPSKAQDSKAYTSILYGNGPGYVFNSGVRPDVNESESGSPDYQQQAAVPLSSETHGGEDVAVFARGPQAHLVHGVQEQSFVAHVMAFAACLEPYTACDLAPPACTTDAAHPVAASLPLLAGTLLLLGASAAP

T7 sequence (P63165 whole entry): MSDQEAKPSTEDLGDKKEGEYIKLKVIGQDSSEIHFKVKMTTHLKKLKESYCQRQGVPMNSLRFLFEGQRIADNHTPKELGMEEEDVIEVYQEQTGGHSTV
Intestinal-type alkaline phosphatase (Mus musculus, UniProt P24822), sequence (P24822 whole entry): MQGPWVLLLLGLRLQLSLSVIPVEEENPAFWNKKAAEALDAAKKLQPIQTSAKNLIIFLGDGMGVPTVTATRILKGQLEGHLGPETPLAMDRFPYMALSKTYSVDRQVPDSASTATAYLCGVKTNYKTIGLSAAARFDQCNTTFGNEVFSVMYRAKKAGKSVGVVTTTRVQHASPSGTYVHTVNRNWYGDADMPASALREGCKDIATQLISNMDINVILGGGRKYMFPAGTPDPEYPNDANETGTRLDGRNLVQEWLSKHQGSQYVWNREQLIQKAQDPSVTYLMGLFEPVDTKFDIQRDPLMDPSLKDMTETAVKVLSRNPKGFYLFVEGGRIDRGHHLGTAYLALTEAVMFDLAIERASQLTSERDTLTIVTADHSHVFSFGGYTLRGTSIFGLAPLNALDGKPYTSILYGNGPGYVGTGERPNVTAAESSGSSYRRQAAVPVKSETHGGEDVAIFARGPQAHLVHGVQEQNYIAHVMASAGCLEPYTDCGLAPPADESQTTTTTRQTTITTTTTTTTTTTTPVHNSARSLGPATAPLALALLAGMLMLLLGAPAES

## CCc1cc(Cl)c(OC)c(C(=O)NC[C@@H]2CCCN2CC)c1O
[1]
  AC50: 19.4 µM (active)

## COc1ccc(/C=C(/NC(=O)c2cccc([N+](=O)[O-])c2)C(=O)O)cc1OC
[1]
  AC50: 18.5 µM (active)

## COC(=O)c1c(NC(C)=O)sc(Cc2ccccc2)c1C
[2]
  EC50: 23.9 µM (inactive)
[3]
  EC50: 39.4 µM (inactive)

## Cc1ccc(C2=NN=C(Nc3ccc(F)cc3)SC2)cc1
[2]
  EC50: 10 µM (active)
[3]
  EC50: 17.8 µM (active)

## COC(=O)c1ccc(NC(=O)c2ccc3c(c2)OCO3)cc1
[4]
  IC50: > 99 µM (inactive)
[5]
  IC50: > 99 µM (inactive)
[6]
  IC50: 3.7 µM (active)

## C[N+](C)(CCCCCC[N+](C)(C)CCCN1C(=O)c2cccc3cccc(c23)C1=O)CCCN1C(=O)c2cccc3cccc(c23)C1=O
[2]
  EC50: 20.4 µM (inactive)
[3]
  EC50: 17.9 µM (active)

## CCOC(=O)c1ccc(N2C(=O)Cc3ccccc3C2=O)cc1
[7]
  IC50: > 100 µM (inactive)
[8]
  IC50: 12 µM (active)

## Cc1cc(N2CCN(C(C(=O)NC3CCCC3)c3ccc(-c4ccccc4)cc3)CC2)c2ccccc2n1 (configuration not stated)
[9]
  IC50: 6.49 µM (active)

## CC(=O)c1ccc(-n2nnnc2SCC(=O)N2CCc3ccccc3C2)cc1
[7]
  IC50: 10.2 µM (active)
[8]
  IC50: 8.03 µM (active)

## COc1c(F)c(F)cc2c(=O)c(C(=O)O)cn(C3CC3)c12
[1]
  AC50: 3.88 µM (active)

## O=C(Nc1ccc2c(c1)C(=O)NC2=O)c1ccc2ncsc2c1
[10]
  IC50: > 66.6 µM (inactive)
[11]
  IC50: 8.45 µM (active)

## O=C(NC1CCCCC1)Oc1cc2oc(=O)sc2cc1Cl
[12]
  IC50: 3.78 µM (active)
[13]
  IC50: 11.8 µM (active)
[14]
  IC50: 3.54 µM (active)
